Measured values published in patent US12059464B2, “Combination therapy involving antibodies against Claudin 18.2 for treatment of cancer” (Astellas Pharma Inc., priority 2012, dated 2024).

Key:
KatoIII cells [1] = test: KatoIII cells pretreated with Irinotecan or Docetaxel: cell growth and cell cycle arrest; assay type: cell-based, human; details: KatoIII cells pretreated for 4 days
Experimental: Cell cycle stages were determined based on measurement of cellular DNA content. This allows one to discriminate between cells in the G1-, S- or G2-phase of the cell cycle. In the S-phase DNA duplication occurs whereas in the G2-phase cells grow and prepare for mitosis. Cell cycle analysis was done using the CycleTEST PLUS DNA Reagent Kit from BD Biosciences following the manufacturer's protocol. Flow cytometry acquisition and analysis were performed by using BD FACS CantoII (BD Biosciences) and FlowJo (Tree Star) software.
KatoIII cells were pretreated for 4 days with Irinotecan or Docetaxel and analysed for CLDN18.2 expression and cell cycle arrest.

KatoIII cells [2] = test: IMAB362-induced ADCC (luciferase) on KatoIII cells pretreated with Irinotecan, Docetaxel or Cisplatin; assay type: cell-based, human; details: KatoIII pretreated for 3 days; for level of viable cells compared to medium cultivated target cells: Irinotecan 1000 ng/ml, Docetaxel 5 ng/ml, Cisplatin 2000 ng/ml; for effect of pretreatment on potency of IMAB362 to induce ADCC: human PBMC effectors
Experimental: Peripheral blood mononuclear cells (PBMCs) including NK cells, monocytes, mononuclear cells or other effector cells from healthy human donors were purified by Ficoll Hypaque density centrifugation. Washed effector cells were seeded in X-Vivo medium. KatoIII cells which express CLDN18.2 endogenously and are of gastric origin were used as target cells in this setting. Target cells stably expressed luciferase, lucifer yellow, which is oxidized by viable cells only.

KatoIII cells [3] = test: Cell cycle analysis and CLDN18.2 surface expression of KatoIII cells cultivated with cytostatic compounds; details: for cell cycle arrest (phase of the cell cycle): KatoIII cells cultivated with cytostatic compound, DNA content by flow cytometry; for CLDN18.2 expression: KatoIII cells, cultivation for 96 hours
Experimental: Epirubicin (Pfizer) was tested at a concentration of 10 or 100 ng/ml, 5-FU (Neofluor from NeoCorp AG) was tested at a concentration of 10 or 100 ng/ml, and oxaliplatin (Hospira) was tested at a concentration of 50 or 500 ng/ml.
As secondary reagent goat-anti-huIgG-APC from Dianova was used.
Cell cycle stages were determined based on measurement of cellular DNA content. […] Cell cycle analysis was done using the CycleTEST PLUS DNA Reagent Kit from BD Biosciences following the manufacturer's protocol. Flow cytometry acquisition and analysis were performed by using BD FACS CantoII (BD Biosciences) and FlowJo (Tree Star) software.

PBMCs = test: Expansion of PBMC cultures with ZA/IL-2; assay type: cell-based, human; details: 14 days, 300 U/ml IL-2
Experimental: PBMCs were harvested from healthy human donors and cultures were treated with a single dose of ZA. […] FIG. 8a. […] FIG. 8b. Increase in cell numbers was determined by counting living cells on day 6, 8, 11 and 14.

Vγ9Vδ2 T cells = test: Enrichment of Vγ9Vδ2 T cells in co-culture with monocytes ± ZA; assay type: cell-based, human; details: co-cultures 14 days, ±1 μM ZA
Experimental: The enrichment of Vγ9Vδ2 T cells in the co-cultures after 14 days was determined by multicolor FACS, whereas the expansion of the culture was considered in the calculation. The enrichment factor of Vγ9Vδ2 T cells cultured with monocytes in a 1:4 ratio was set to 100% for each experiment. […] This effect was clearly ZA-dependent; cf. FIG. 11a.

NUGC-4 cells = assay type: cell-based, human
Experimental: (§1) Furthermore, human stomach cancer cells (NUGC-4-luciferase) and murine stomach cancer cells (CLS103-calcein stained) were pretreated with or w/o 5 μM ZA for 2 days. Human Vγ9Vδ2 T cells were MACS purified (day 14) and co-cultured with the cancer cells for 24 h. Cytotoxicity of Vγ9Vδ2 T cells towards non-treated and ZA-treated target cells was determined by measuring remaining luciferase activity or calcein fluorescence; cf. FIG. 11b. Target cells (NUGC-4 and CLS103) were pretreated with or w/o 5 μM ZA for 2 days and subsequently incubated for 4 h with mitomycin c ([…]) to stop proliferation. MACS purified human 14d old resting Vγ9Vδ2 T cells and ^3H-thymidine were added to the target cells and co-cultures were incubated for 48 h at 37° C. Proliferation was determined by measuring ^3H thymidine incorporation in the DNA using a MicroBeta scintillation counter. Proliferation of target cells not treated with ZA and w/o Vγ9Vδ2 T cells was set to 100%; cf. FIG. 11c.

CLS103 cells = tested on: CLS103 cells
Experimental: as §1

[4] = tested on: HEK293~CLDN18.2 transfectants; test: Early treatment of HEK293~CLDN18.2 tumor xenografts; assay type: in vivo, nude mice; details: isotype control, 200 μg twice per week for 6 weeks
Source text: Moreover, advanced tumor treatment experiments were initiated up to 9 days after tumor cell inoculation when tumors had reached volumes of about 60-120 mm^3.
Nude mice were subcutaneously inoculated with 1×10^7 HEK293˜CLDN18.2 transfectants. Treatment of 10 mice per group started 3 days after tumor inoculation. […] Not only time to death was prolonged, but 4 of 10 mice survived the entire observation period of 210 days.

NUGC-4 xenografts = test: In vivo tumor targeting of Dyelight 680-labeled antibodies (fluorescence imaging); design: species or system nude mice; details: time not stated

Compound: CC(=O)O[C@@]12CO[C@@H]1C[C@H](O)[C@@]1(C)C(=O)[C@H](O)C3=C(C)[C@@H](OC(=O)[C@H](O)[C@@H](NC(=O)OC(C)(C)C)c4ccccc4)C[C@@](O)([C@@H](OC(=O)c4ccccc4)[C@H]21)C3(C)C [Docetaxel, docetaxel]
- cell cycle arrest (phase) (KatoIII cells [1]): cell cycle arrest in the G2-phase
- inhibition of cell growth (KatoIII cells [1]): dose dependent inhibition of cell growth
- claudin18.2 expression compared to medium cultivated cells (KatoIII cells [2]): increased
- level of viable cells compared to medium cultivated target cells (KatoIII cells [2]): lower level of viable cells
- effect of pretreatment on potency of IMAB362 to induce ADCC (KatoIII cells [2]): augmented the potency of IMAB362 to induce ADCC

Compound: CCc1c2c(nc3ccc(OC(=O)N4CCC(N5CCCCC5)CC4)cc13)-c1cc3c(c(=O)n1C2)COC(=O)[C@]3(O)CC [Irinotecan, (S)-4,11-diethyl-3,4,12,14-tetrahydro-4-hydroxy-3,14-dioxo1H-pyrano[3′,4′:6,7]-indolizino[1,2-b]quinolin-9-yl-[1,4′bipiperidine]-1′-carboxylate]
- cell cycle arrest (phase) (KatoIII cells [1]): cell cycle arrest in the S/G2-phase
- inhibition of cell growth (KatoIII cells [1]): dose dependent inhibition of cell growth
- claudin18.2 expression compared to medium cultivated cells (KatoIII cells [2]): increased
- level of viable cells compared to medium cultivated target cells (KatoIII cells [2]): lower level of viable cells
- effect of pretreatment on potency of IMAB362 to induce ADCC (KatoIII cells [2]): augmented the potency of IMAB362 to induce ADCC

Compound: O=C1[O][Pt]2([NH][C@@H]3CCCC[C@H]3[NH]2)[O]C1=O [Oxaliplatin, [(1R,2R)-cyclohexane-1,2-diamine](ethanedioato-O,O′)platinum(II)]
- cell cycle arrest (phase of the cell cycle) (KatoIII cells [3]): enrichment of cells predominantly in the G1- and G2-phases

Compound: O=P(O)(O)C(O)(Cn1ccnc1)P(=O)(O)O [ZA, [1-hydroxy-2-(1H-imidazol-1-yl)ethane-1,1-diyl]bis(phosphonic acid)]
- lower expansion of cells in medium without ZA versus with ZA (PBMCs): about 2 fold
- enrichment of Vγ9Vδ2 T cells with increase of monocytes in the culture (ZA-dependent) (Vγ9Vδ2 T cells): more than 10 fold
- activation of Vγ9Vδ2 T cell cytotoxicity by ZA-pulsed cancer cells (NUGC-4 cells): 5-10 fold
- activation of Vγ9Vδ2 T cells (cytotoxicity and proliferation) by ZA-pulsed cancer cells (CLS103 cells): failed to elicit these effects

Compound: infliximab: isotype control antibody [reference compound]
- time within which all mice died [4]: 70 to 80 days

Compound: N.N.[Cl][Pt][Cl] [Cisplatin, cis-diamminedichloroplatinum(II)]
- claudin18.2 expression compared to medium cultivated cells (KatoIII cells [2]): increased
- level of viable cells compared to medium cultivated target cells (KatoIII cells [2]): lower level of viable cells
- effect of pretreatment on potency of IMAB362 to induce ADCC (KatoIII cells [2]): augmented the potency of IMAB362 to induce ADCC

Compound: O=c1[nH]cc(F)c(=O)[nH]1 [5-FU, 5-fluoro-1H-pyrimidine-2,4-dione]
- cell cycle arrest (phase of the cell cycle) (KatoIII cells [3]): blocked predominantly in the S-phase
- CLDN18.2 expression (KatoIII cells [3]): stabilize CLDN18.2-expression

Compound: COc1cccc2c1C(=O)c1c(O)c3c(c(O)c1C2=O)C[C@@](O)(C(=O)CO)C[C@@H]3O[C@H]1C[C@H](N)[C@@H](O)[C@H](C)O1 [Epirubicin]
- cell cycle arrest (phase of the cell cycle) (KatoIII cells [3]): cell cycle arrest predominantly in the G2-phase
- CLDN18.2 expression (KatoIII cells [3]): stabilize CLDN18.2-expression

Compound: rituximab: Dyelight 680-labeled negative control antibody (NUGC-4 negative for CD20) [reference compound]
- signal of labeled antibody (negative control, NUGC-4 negative for CD20) (NUGC-4 xenografts): No signal is detected
